This note sets out measurements from patent US20240342120A1, “MULTIPLE MYELOMA TREATMENT” (Vanda Pharmaceuticals Inc., priority 2013, published 2024).

Holding throughout (assay type): cell-based
In assay [1] the test system is CDC2. The assay can be described thus: Affymetrix gene expression, CDC2, cells treated 24 hours. The conditions noted are these: probe 203214_x_at; human retinal pigment epithelial cell line; 24 hours vs vehicle; Instance ID 10005533. As to the method: (§1) A human retinal pigment epithelial cell line was treated with trichostatin or vehicle for 24 hours and gene expression for 22,238 probe sets covering 12,490 genes was generated using an Affymetrix instrument.

For assay [2], the system named is TOP2A. The assay can be described thus: Affymetrix gene expression, TOP2A, cells treated 24 hours. The following applies: human retinal pigment epithelial cell line, 24 hours vs vehicle. The protocol:
as §1

The test system of assay [3] is CCNB1, AURKB, CDC2, BIRC5, KIF11, KIF2C, TOP2A, ASPM, CKS1B, and WEE1. The assay can be described thus: Affymetrix gene expression, ten-gene summary, cells treated 24 hours. The following applies: human retinal pigment epithelial cell line; 24 hours vs vehicle; summary in words of Table 1. The protocol: as §1

As for `CC(/C=C/C(=O)NO)=C\[C@@H](C)C(=O)c1ccc(N(C)C)cc1` [trichostatin A, 7-[4-(dimethylamino)phenyl]-N-hydroxy-4,6-dimethyl-7-oxohepta-2,4-dienamide], the “Fold Expression Δ, CDC2” value in assay [1] is given as −11.83 Fold. For the same molecule, the “Fold Expression Δ, TOP2A” value in assay [2] (probe 201291_s_at, Instance ID 10005533) is reported as −28.22 Fold; in assay [2] (probe 201292_at, Instance ID 10005532) it was −31.95 Fold. For the same molecule, the “effect on expression of CCNB1, AURKB, CDC2, BIRC5, KIF11, KIF2C, TOP2A, ASPM, CKS1B, and WEE1” value in assay [3] is “significant downregulation”.
